Our source for the IC50 values is patent US6710048B2, “Pyrazine derivatives as modulators of tyrosine kinases” (Ortho-McNeil Pharmaceutical, Inc., priority 2000, dated 2004).

T1 sequence (P06213 980-1352): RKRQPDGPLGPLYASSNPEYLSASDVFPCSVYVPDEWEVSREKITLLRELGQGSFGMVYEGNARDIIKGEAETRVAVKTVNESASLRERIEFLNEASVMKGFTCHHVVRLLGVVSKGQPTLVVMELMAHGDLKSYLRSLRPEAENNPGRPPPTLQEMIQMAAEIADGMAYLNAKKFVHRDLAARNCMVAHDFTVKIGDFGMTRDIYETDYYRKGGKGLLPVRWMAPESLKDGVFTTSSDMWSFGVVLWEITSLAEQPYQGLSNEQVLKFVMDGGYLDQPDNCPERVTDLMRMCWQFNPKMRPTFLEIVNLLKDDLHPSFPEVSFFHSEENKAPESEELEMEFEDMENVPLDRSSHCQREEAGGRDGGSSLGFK
T3 sequence (P11275 1-325): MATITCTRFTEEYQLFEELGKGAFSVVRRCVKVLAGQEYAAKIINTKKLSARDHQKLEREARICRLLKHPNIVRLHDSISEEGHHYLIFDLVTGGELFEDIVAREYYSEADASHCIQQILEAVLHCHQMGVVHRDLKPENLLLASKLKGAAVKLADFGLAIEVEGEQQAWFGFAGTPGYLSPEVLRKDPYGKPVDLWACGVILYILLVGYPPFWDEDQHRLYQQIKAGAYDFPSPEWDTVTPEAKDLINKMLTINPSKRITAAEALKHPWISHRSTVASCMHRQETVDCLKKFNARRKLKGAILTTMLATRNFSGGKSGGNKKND
Chain of CDK4 (cyclin dependent kinase 4) (P11802 whole entry, species assumed): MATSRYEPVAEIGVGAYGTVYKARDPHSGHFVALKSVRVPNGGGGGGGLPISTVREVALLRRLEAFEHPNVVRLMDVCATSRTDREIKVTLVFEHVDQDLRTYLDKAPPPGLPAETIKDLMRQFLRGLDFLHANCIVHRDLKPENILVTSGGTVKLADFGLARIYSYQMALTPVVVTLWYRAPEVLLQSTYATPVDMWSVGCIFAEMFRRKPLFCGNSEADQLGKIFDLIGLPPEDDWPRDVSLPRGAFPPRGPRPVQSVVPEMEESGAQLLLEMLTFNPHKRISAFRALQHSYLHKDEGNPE
Chain of CDK4 (cyclin dependent kinase 4) (P24385 whole entry partner, species assumed): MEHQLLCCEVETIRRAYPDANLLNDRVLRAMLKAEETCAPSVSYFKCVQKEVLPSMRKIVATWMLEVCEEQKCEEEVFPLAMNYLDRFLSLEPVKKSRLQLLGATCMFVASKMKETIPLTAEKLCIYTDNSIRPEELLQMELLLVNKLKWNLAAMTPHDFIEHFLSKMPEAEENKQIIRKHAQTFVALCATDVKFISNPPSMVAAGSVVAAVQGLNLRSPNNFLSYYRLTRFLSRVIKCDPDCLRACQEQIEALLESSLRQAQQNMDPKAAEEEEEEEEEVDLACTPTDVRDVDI

One test addresses T1, Insulin Receptor Kinase (Homo sapiens, UniProt P06213).
T1 construct: consists of residues 941-1313 of the cytoplasmic domain of the beta-subunit of the human insulin receptor; purchased BIOMOL SE-195
In words: Insulin Kinase selectivity assay. In kind it is biochemical. The note with it: Table 4 kinase selectivity; read-out: IC50, Assay 13 Insulin Kinase. As for the experimental part: (§1) Assays to test compound inhibition of other kinases were preformed using methods that measure the amount of phosphorylation of a biotinylated peptide substrate. Biotinylated peptide substrates were selected from the literature as appropriate for the enzyme being evaluated. […] Assay conditions vary slightly for each protein kinase, for example, insulin receptor kinase requires 10 mM MnCl2 for activity and Calmodulin-dependent protein kinase requires calmodulin and 2 mM CaCl2. The reaction mixture was dispensed into the wells of a streptavidin coated Flashplate and 1 μl drug stock in 100% DMSO was added to a 100 μl reaction volume resulting in a final concentration of 1% DMSO in the reaction. Enzyme was diluted in 50 mM Tris-HCl pH=8.0, 0.1% BSA and added to each well. The reaction was incubated for one hour at 30° C. in the presence of compound. After one hour the reaction mix was aspirated from the plate and the plate was washed with PBS containing 100 mM EDTA. The plate was read on a scintillation counter to determine ^33P-γ-ATP incorporated into the immobilized peptide. Test compounds were assayed in duplicate at 8 concentrations [100 tM, 10 μM, 1 μM, 100 nM, 10 nM, 1 nM, 100 μM, 10 μM]. A maximum and minimum signal for the assay was determined on each plate. The IC50 was calculated from the dose response curve of the percent inhibition of the maximum signal in the assay according to the formula [max signal−background/test compound signal−background (100)=% inhibition] by graphing the percent inhibition against the log concentration of test compound. Known inhibitor compounds appropriate for the kinase being assayed were also included on each plate.
(§2) VEGF-R (vascular endothelial growth factor receptor-2) is a fusion protein containing a polyhistidine tag at the N-terminus followed by amino acids 786-1343 of the rat VEGF-R2 kinase domain (GenBank Accession #U93306). CDK1 (cyclin dependent kinase 1) is isolated from insect cells expressing both the human CDK1 catalytic subunit and its positive regulatory subunit cyclin B (New England Biolabs, Beverly, Mass., Cat. #6020). CDK4 (cyclin dependent kinase 4) contains amino acids 769 to 921 of the mouse […] protein found in the GST-retinoblastoma protein construct (Santa Cruz Biotechnology, Santa Cruz, Calif.; Cat. #SC-4112). Insulin Receptor Kinase consists of residues 941-1313 of the cytoplasmic domain of the beta-subunit of the human insulin receptor (BIOMOL, Plymouth Meeting, Pa., Cat. #SE-195). Protein Kinase A is the catalytic subunit of cAMP dependent protein kinase-A purified from bovine heart (Upstate Biotech, Lake Placid, N.Y., Cat#14-114). PKC (protein kinase-C) is the gamma or beta isoform of the human protein produced in insect cells (BIOMOL, Plymouth Meeting, Pa., Cat. #SE-143). Casein Kinase 1 is a truncation at amino acid 318 of the C-terminal portion of the rat CK1 delta isoform produced in E.coli (New England Biolabs, Beverly, Mass., Cat. #6030). Casein Kinase 2 includes the alpha and beta subunits of the human CK2 protein produced in E.coli (New England Biolabs, Beverly, Mass., Cat. #6010). Calmodulin Kinase (calmodulin-dependent protein kinase 2) is a truncated version of the alpha subunit of the rat protein produced in insect cells (New England Biolabs, Beverly, Mass., Cat. #6060). Glycogen Synthase Kinase-3 is the beta isoform of the rabbit enzyme produced in E. coli (New England Biolabs, Beverly, Mass., Cat. #6040). MAP Kinase is the rat ERK-2 isoform containing a polyhistidine tag at the N-terminus produced in E. coli. and activated by phosphorylation with MEK1 prior to purification (BIOMOL, Plymouth Meeting, Pa., Cat. #SE-137). EGFR (epidermal growth factor receptor) is purified from human A431 cell membranes (Sigma, St. Louis, Mo., Cat.# E3641). PDGF-R (platelet derived growth factor receptor) is a fusion protein containing a polyhistidine tag at the N-terminus followed by nucleotides 1874-3507 of the human PDGF-R beta subunit kinase domain (Accession #M21616). […]
Take `O=C(NCCCO)c1cncc(-c2cncc(Nc3cccc(Cl)c3)n2)c1` [Cmd 39]: the IC50 is 1.8 µM.
On to `Clc1cccc(Nc2cncc(-c3cncc(NCCCc4cccnc4)c3)n2)c1` [Cmd 72], for which the IC50 is more than 100 µM.
On the same count and under the same terms, the figure for `Clc1cccc(Nc2cncc(-c3cncc(NCCCn4cncn4)c3)n2)c1` [Cmd 76] is more than 100 µM; for `OCCCCNc1cncc(-c2cncc(Nc3cccc(Cl)c3)n2)c1` [Cmd 32] it is more than 100 µM.
Same read-out and setting: the figure for `OCCCNc1cncc(-c2cncc(Nc3cccc(Cl)c3)n2)c1` [Cmd 4] is 1.69 µM.

In a further test the target is T2, PKC-γ (Homo sapiens, UniProt P05129).
T2 construct: purchased BIOMOL SE-143; host or cells: insect cells
In words: PKC-γ kinase selectivity assay. Particulars: Table 4 kinase selectivity; read-out: IC50, Assay 6 PKC-γ. In kind it is biochemical. The method, then: as §1, §2
As to `O=C(NCCCO)c1cncc(-c2cncc(Nc3cccc(Cl)c3)n2)c1` [Cmd 39], the IC50 was more than 100 µM.
Turning to `OCCCCNc1cncc(-c2cncc(Nc3cccc(Cl)c3)n2)c1` [Cmd 32], the IC50 is more than 100 µM.
Same read-out and setting: the figure for `OCCCNc1cncc(-c2cncc(Nc3cccc(Cl)c3)n2)c1` [Cmd 4] is more than 100 µM.

The next test has as its target T3, Calmodulin Kinase (calmodulin-dependent protein kinase 2) (Rattus norvegicus, UniProt P11275).
T3 construct: a truncated version of the alpha subunit of the rat protein; purchased New England Biolabs 6060; host or cells: insect cells
In words: Calmodulin Kinase selectivity assay. In kind it is biochemical. Particulars: Table 4 kinase selectivity; read-out: IC50, Assay 10 Calmodulin Kinase.
As for `O=C(NCCCO)c1cncc(-c2cncc(Nc3cccc(Cl)c3)n2)c1` [Cmd 39], the IC50 is more than 100 µM.
On to `Clc1cccc(Nc2cncc(-c3cncc(NCCCc4cccnc4)c3)n2)c1` [Cmd 72], for which the IC50 was more than 100 µM.
On the same count and under the same terms, the figure for `Clc1cccc(Nc2cncc(-c3cncc(NCCCn4cncn4)c3)n2)c1` [Cmd 76] is 15.8 µM; for `OCCCCNc1cncc(-c2cncc(Nc3cccc(Cl)c3)n2)c1` [Cmd 32] it is more than 100 µM.
Still for that read-out and setting: the figure for `OCCCNc1cncc(-c2cncc(Nc3cccc(Cl)c3)n2)c1` [Cmd 4] is more than 100 µM.

The target of another test is CDK4 (cyclin dependent kinase 4) (Homo sapiens, UniProt P11802). In words: CDK4 kinase selectivity assay. Particulars: Table 4 kinase selectivity; 10 = approximate value; read-out: IC50, Assay 3 CDK4. In kind it is biochemical. The method, then:
as §1
VEGF-R (vascular endothelial growth factor receptor-2) is a fusion protein containing a polyhistidine tag at the N-terminus followed by amino acids 786-1343 of the rat VEGF-R2 kinase domain (GenBank Accession #U93306). CDK1 (cyclin dependent kinase 1) is isolated from insect cells expressing both the human CDK1 catalytic subunit and its positive regulatory subunit cyclin B (New England Biolabs, Beverly, Mass., Cat. #6020). CDK4 (cyclin dependent kinase 4) contains amino acids 769 to 921 of the mouse […] protein found in the GST-retinoblastoma protein construct (Santa Cruz Biotechnology, Santa Cruz, Calif.; Cat. #SC-4112). Insulin Receptor Kinase consists of residues 941-1313 of the cytoplasmic domain of the beta-subunit of the human insulin receptor (BIOMOL, Plymouth Meeting, Pa., Cat. #SE-195). Protein Kinase A is the catalytic subunit of cAMP dependent protein kinase-A purified from bovine heart (Upstate Biotech, Lake Placid, N.Y., Cat#14-114). PKC (protein kinase-C) is the gamma or beta isoform of the human protein produced in insect cells (BIOMOL, Plymouth Meeting, Pa., Cat. #SE-143). […]
As for `OCCCCNc1cncc(-c2cncc(Nc3cccc(Cl)c3)n2)c1` [Cmd 32], the IC50 is more than 10 µM.
Still for that read-out and setting: the figure for `OCCCNc1cncc(-c2cncc(Nc3cccc(Cl)c3)n2)c1` [Cmd 4] is approximately 10 µM.

Another test addresses T4, Protein Kinase A (Bos taurus, UniProt P00517).
T4 construct: purified from bovine heart; purchased Upstate Biotech 14-114; host or cells: bovine heart
In words: Protein Kinase A selectivity assay. In kind it is biochemical, bovine. Particulars: Table 4 kinase selectivity; read-out: IC50, Assay 5 Protein Kinase A. The method, then: as §1, §2
Consider `O=C(NCCCO)c1cncc(-c2cncc(Nc3cccc(Cl)c3)n2)c1` [Cmd 39], for which the IC50 is more than 100 µM.
Same read-out and setting: the figure for `Clc1cccc(Nc2cncc(-c3cncc(NCCCc4cccnc4)c3)n2)c1` [Cmd 72] is more than 100 µM.
The same measure, in the same setting: the figure for `Clc1cccc(Nc2cncc(-c3cncc(NCCCn4cncn4)c3)n2)c1` [Cmd 76] is more than 100 µM; for `OCCCCNc1cncc(-c2cncc(Nc3cccc(Cl)c3)n2)c1` [Cmd 32] it is more than 100 µM.
Still for that read-out and setting: the figure for `OCCCNc1cncc(-c2cncc(Nc3cccc(Cl)c3)n2)c1` [Cmd 4] is more than 100 µM.

In the next test the target is T5, PKC-β2 (Homo sapiens, UniProt P05771).
T5 construct: purchased BIOMOL SE-143; host or cells: insect cells
T5 sequence (P05771 1-673 isoform P05771-2): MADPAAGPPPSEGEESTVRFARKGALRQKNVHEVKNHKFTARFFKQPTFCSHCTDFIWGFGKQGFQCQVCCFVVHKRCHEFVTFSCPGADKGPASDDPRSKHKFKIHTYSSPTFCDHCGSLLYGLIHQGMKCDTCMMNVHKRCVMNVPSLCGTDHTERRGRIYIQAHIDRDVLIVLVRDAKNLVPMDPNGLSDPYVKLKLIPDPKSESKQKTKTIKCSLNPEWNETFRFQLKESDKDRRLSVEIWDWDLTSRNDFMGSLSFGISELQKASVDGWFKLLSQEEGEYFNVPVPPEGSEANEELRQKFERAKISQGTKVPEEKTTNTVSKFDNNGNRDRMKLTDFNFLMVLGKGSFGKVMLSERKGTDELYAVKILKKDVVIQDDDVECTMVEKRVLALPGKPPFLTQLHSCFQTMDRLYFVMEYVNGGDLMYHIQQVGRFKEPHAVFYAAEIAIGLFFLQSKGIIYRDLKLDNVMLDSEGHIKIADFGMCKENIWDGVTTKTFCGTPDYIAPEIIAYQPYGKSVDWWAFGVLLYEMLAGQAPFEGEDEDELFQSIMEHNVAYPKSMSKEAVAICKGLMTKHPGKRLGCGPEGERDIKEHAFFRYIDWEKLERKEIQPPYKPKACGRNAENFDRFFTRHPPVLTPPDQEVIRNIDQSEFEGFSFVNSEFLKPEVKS
The experiment in a line: PKC-β2 kinase selectivity assay. The note with it: Table 4 kinase selectivity; read-out: IC50, Assay 7 PKC-β2. In kind it is biochemical. As for the experimental part: as §1, §2
In the case of `O=C(NCCCO)c1cncc(-c2cncc(Nc3cccc(Cl)c3)n2)c1` [Cmd 39], the IC50 was more than 100 µM.
Consider `OCCCCNc1cncc(-c2cncc(Nc3cccc(Cl)c3)n2)c1` [Cmd 32], for which the IC50 is more than 100 µM.
With `OCCCNc1cncc(-c2cncc(Nc3cccc(Cl)c3)n2)c1` [Cmd 4], the IC50 is more than 100 µM.

In another test the target is T6, PDGF-R (platelet derived growth factor receptor) (Homo sapiens, UniProt P09619).
T6 construct: polyhistidine (N)
T6 sequence (P09619 554-1106 limits assumed): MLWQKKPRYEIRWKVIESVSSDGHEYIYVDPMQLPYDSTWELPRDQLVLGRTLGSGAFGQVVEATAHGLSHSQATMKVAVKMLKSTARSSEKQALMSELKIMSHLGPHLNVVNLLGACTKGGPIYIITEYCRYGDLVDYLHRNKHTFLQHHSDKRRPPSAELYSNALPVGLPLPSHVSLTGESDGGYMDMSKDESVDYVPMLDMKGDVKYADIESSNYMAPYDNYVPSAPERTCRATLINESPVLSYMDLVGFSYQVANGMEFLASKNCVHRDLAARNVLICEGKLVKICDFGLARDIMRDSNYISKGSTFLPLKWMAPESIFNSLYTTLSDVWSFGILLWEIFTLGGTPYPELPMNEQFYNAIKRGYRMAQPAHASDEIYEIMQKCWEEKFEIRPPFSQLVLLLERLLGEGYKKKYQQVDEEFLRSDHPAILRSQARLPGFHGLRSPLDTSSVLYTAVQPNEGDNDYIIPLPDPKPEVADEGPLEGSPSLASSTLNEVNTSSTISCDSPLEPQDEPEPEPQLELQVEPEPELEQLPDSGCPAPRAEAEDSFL
The experiment in a line: PDGF-R kinase selectivity assay. Particulars: Table 4 kinase selectivity; read-out: IC50, Assay 14 PDGF-R. In kind it is biochemical. The method, then:
as §1, §2
Consider `O=C(NCCCO)c1cncc(-c2cncc(Nc3cccc(Cl)c3)n2)c1` [Cmd 39], for which the IC50 turned out to be 2.8 µM.
With `Clc1cccc(Nc2cncc(-c3cncc(NCCCc4cccnc4)c3)n2)c1` [Cmd 72], the IC50 was found to be 0.876 µM.
Same read-out and setting: the figure for `Clc1cccc(Nc2cncc(-c3cncc(NCCCn4cncn4)c3)n2)c1` [Cmd 76] is 0.725 µM; for `OCCCCNc1cncc(-c2cncc(Nc3cccc(Cl)c3)n2)c1` [Cmd 32] it is 2.8 µM.

For a further test, the target named is T7, Glycogen Synthase Kinase-3 (beta isoform) (Oryctolagus cuniculus, UniProt G1T8E2).
T7 construct: purchased New England Biolabs 6040; host or cells: E. coli
T7 sequence (G1T8E2 1-432): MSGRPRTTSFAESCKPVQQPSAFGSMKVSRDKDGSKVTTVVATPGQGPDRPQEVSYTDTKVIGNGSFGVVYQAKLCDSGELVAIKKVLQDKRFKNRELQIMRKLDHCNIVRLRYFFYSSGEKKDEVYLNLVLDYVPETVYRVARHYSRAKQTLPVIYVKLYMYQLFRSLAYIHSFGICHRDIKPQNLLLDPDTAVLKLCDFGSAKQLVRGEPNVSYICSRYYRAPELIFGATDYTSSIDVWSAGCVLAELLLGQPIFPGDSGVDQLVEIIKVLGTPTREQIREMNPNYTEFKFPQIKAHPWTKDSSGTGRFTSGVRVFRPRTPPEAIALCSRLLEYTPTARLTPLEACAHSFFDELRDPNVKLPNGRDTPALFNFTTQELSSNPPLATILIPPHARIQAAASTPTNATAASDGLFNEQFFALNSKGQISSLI
In words: GSK-3 kinase selectivity assay. Particulars: Table 4 kinase selectivity; read-out: IC50, Assay 11 GSK-3. In kind it is biochemical, rabbit. The method, then:
as §1, §2
Turning to `O=C(NCCCO)c1cncc(-c2cncc(Nc3cccc(Cl)c3)n2)c1` [Cmd 39], the IC50 was determined as 0.866 µM.
Same read-out and setting: the figure for `Clc1cccc(Nc2cncc(-c3cncc(NCCCc4cccnc4)c3)n2)c1` [Cmd 72] is 0.318 µM.
As to `Clc1cccc(Nc2cncc(-c3cncc(NCCCn4cncn4)c3)n2)c1` [Cmd 76], the IC50 was 0.196 µM.
Same read-out and setting: the figure for `OCCCCNc1cncc(-c2cncc(Nc3cccc(Cl)c3)n2)c1` [Cmd 32] is 4.02 µM; for `OCCCNc1cncc(-c2cncc(Nc3cccc(Cl)c3)n2)c1` [Cmd 4] it is 0.478 µM.
